In patent publication US20200163984A1, “USE OF ISOVALERYL SPIRAMYCIN I, II AND/OR III IN MANUFACTURING MEDICAMENT FOR TREATING AND/OR PREVENTING TUMOR, AND MEDICAMENT” (SHENYANG FUYANG PHARMACEUTICAL TECHNOLOGY CO., LTD., priority 2017, published 2020):

Legend:
[1] = tested on: transplanted tumor of human thyroid cancer cell TPC-1; test: TPC-1 transplanted tumor in nude mice; details: for tumor volume and relative tumor volume compared with the model group: low, medium and high doses, P<0.05; for Tumor Volume (mm3) (d30): d 30; for mouse weight compared with the model group / Body Weight (g) (d1) / Body Weight (g) (d30): in vivo, mouse
Method: (§1) Then cell concentration was adjusted to 1×10^7/ml with matrigel, then each nude mouse was inoculated subcutaneously with 0.2 ml of cells at its right armpit and recorded as the first day of inoculation. When the tumor grows to be greater than or equal to 100 mm^3, the mice were randomly divided into 11 groups with 6 mice in each group: isovaleryl spiramycin I groups with doses of 25, 50 and 100 mg/kg, isovaleryl spiramycin II groups with doses of 25, 50 and 100 mg/kg, and isovaleryl spiramycin III groups with doses of 25, 50 and 100 mg/kg. Each group was continuously administered intragastrically for 30 days with a dose of 20 ml/kg. The mice were sacrificed the next day after drug withdrawal and the indicators were tested. The long diameter and short diameter of the tumor, and the body weight of each mouse were recorded every 3 days from drug administration to nude mouse sacrifice.
(§2) The body weight of the nude mice and the long diameter (a) and short diameter (b) of the transplanted tumor were measured every 3 days, and the tumor volume (v), relative tumor volume (RTV) and relative tumor proliferation rate (T/C) are calculated respectively according to the following formulas, wherein V=a×b^2/2; RTV=V/V0 (V0 is the tumor volume before administration, V is the tumor volume before sacrifice), and T/C (%)=treatment group RTV/model control group RTV×100%.
(§3) Each mouse was weighed and sacrificed. After the tumor was completely stripped off from the body of the mouse, the non-tumor tissues such as blood stains and fat were removed to weigh the tumor and calculate the tumor growth inhibition rate. The average tumor weight of each group of mice is used as an indicator of efficacy. Tumor growth inhibition rate (%)=(1−the average tumor weight of the treatment group/the average tumor weight of the model group)×100%.

[2] = Thymus index and spleen index of Lewis lung cancer tumor-bearing mice; details: n = 6
Method: In the Lewis lung cancer model, the mice inoculated with the tumor were randomly divided into groups with 10 mice in each group the next day of inoculation. The groups included: a model control group, a positive drug cyclophosphamide control group (CTX, 30 mg/kg), isovaleryl spiramycin I groups with doses of 13, 26 and 52 mg/kg; isovaleryl spiramycin II groups with doses of 13, 26 and 52 mg/kg; isovaleryl spiramycin III groups with doses of 13, 26 and 52 mg/kg. Each group was continuously administered intragastrically for 15 days with a dose of 20 ml/kg.

[3] = tested on: transplanted tumor of human renal clear cell adenocarcinoma cell 786-O; test: 786-O transplanted tumor in nude mice; details: for Tumor Volume (mm3) (d 1): d1; for tumor volume and relative tumor volume compared with the model group: low, medium and high doses, P<0.05; for mouse weight compared with the model group / Body Weight (g) (d1) / Body Weight (g) (d30): in vivo, mouse
Method: as §1, with “786-O cells in a logarithmic growth phase were taken and subjected to a trypan blue exclusion experiment showing that the cell viability was more than 95%, then the cells were subjected to trypsinization, centrifugation, and supernatant removal. Then” for “Then”, “group: a model group, a cyclophosphamide group,” for “group:”
as §2, §3

[4] = TPC-1, high dose (100 mg/kg in method) i.g. 30 days
[5] = TPC-1, low dose (25 mg/kg in method) i.g. 30 days
[6] = TPC-1, medium dose (50 mg/kg in method) i.g. 30 days
[7] = 786-O, high dose (100 mg/kg in method) i.g. 30 days
[8] = 786-O, low dose (25 mg/kg in method) i.g. 30 days
[9] = 786-O, medium dose (50 mg/kg in method) i.g. 30 days

## CCC(=O)O[C@@H]1CC(=O)O[C@H](C)C/C=C/C=C/[C@H](O[C@H]2CC[C@H](N(C)C)[C@@H](C)O2)[C@H](C)C[C@H](CC=O)[C@H](O[C@@H]2O[C@H](C)[C@@H](O[C@H]3C[C@@](C)(O)[C@@H](OC(=O)CC(C)C)[C@H](C)O3)[C@H](N(C)C)[C@H]2O)[C@H]1OC [Isovaleryl spiramycin III, isovaleryl spiramycin III]
[1]; [4]
  Relative Tumor Proliferation Rate (T/C): 34.75%
  tumor growth inhibition rate: 62.94%
[1]; [5]
  Relative Tumor Proliferation Rate (T/C): 61.93%
  tumor growth inhibition rate: 39.06%
[1]; TPC-1
  tumor volume and relative tumor volume compared with the model group: significantly lower
[1]; [6]
  Relative Tumor Proliferation Rate (T/C): 45.01%
  tumor growth inhibition rate: 60.25%
[1]; dose 25 mg/kg
  Inhibition Rate (%): 39.06%
  Relative Tumor Proliferation Rate (T/C): 61.93%
  Relative Tumor Volume (RTV): 10.19 ± 2.79
  Tumor Weight: 1.47 ± 0.44 g
  Tumor Volume (mm3) (d 1): 119.35 ± 3.84 mm3
  Tumor Volume (mm3) (d30): 1210.76 ± 295.50 mm3
[1]; dose 50 mg/kg
  Inhibition Rate (%): 60.25%
  Relative Tumor Proliferation Rate (T/C): 45.01%
  Relative Tumor Volume (RTV): 7.41 ± 2.51
  Tumor Weight: 0.96 ± 0.43 g
  Tumor Volume (mm3) (d 1): 116.75 ± 5.22 mm3
  Tumor Volume (mm3) (d30): 866.73 ± 306.25 mm3
[1]; dose 100 mg/kg
  Inhibition Rate (%): 62.94%
  Relative Tumor Proliferation Rate (T/C): 34.75%
  Relative Tumor Volume (RTV): 5.72 ± 3.04
  Tumor Weight: 0.90 ± 0.44 g
  Tumor Volume (mm3) (d 1): 115.43 ± 7.58 mm3
  Tumor Volume (mm3) (d30): 654.78 ± 338.68 mm3
[1]
  mouse weight compared with the model group: no significant changes
[1]; 25 mg/kg
  Body Weight (g) (d1): 21.13 ± 1.48 g
  Body Weight (g) (d30): 23.49 ± 1.02 g
[1]; 50 mg/kg
  Body Weight (g) (d1): 21.43 ± 1.85 g
  Body Weight (g) (d30): 24.06 ± 1.71 g
[1]; 100 mg/kg
  Body Weight (g) (d1): 20.76 ± 2.13 g
  Body Weight (g) (d30): 23.72 ± 1.60 g
[2]; dose 13 mg/kg
  Spleen Index (%): 0.62 ± 0.25%
  Thymus Index (%): 0.12 ± 0.10%
[2]; dose 26 mg/kg
  Spleen Index (%): 0.68 ± 0.11%
  Thymus Index (%): 0.11 ± 0.07%
[2]; dose 52 mg/kg
  Spleen Index (%): 0.74 ± 0.23%
  Thymus Index (%): 0.13 ± 0.06%
[3]; 786-O nude mice, 25 mg/kg
  Inhibition Rate (%): 35.80%
  Relative Tumor Proliferation Rate (T/C): 73.13%
  Relative Tumor Volume (RTV): 18.90 ± 3.60
  Tumor Weight: 1.38 ± 0.42 g
  Tumor Volume (mm3) (d 1): 106.47 ± 6.86 mm3
  Tumor Volume (mm3) (d30): 1479.90 ± 458.97 mm3
[3]; 786-O nude mice, 50 mg/kg
  Inhibition Rate (%): 52.14%
  Relative Tumor Proliferation Rate (T/C): 51.33%
  Relative Tumor Volume (RTV): 9.76 ± 1.44
  Tumor Weight: 1.02 ± 0.27 g
  Tumor Volume (mm3) (d 1): 96.82 ± 8.52 mm3
  Tumor Volume (mm3) (d30): 944.60 ± 112.60 mm3
[3]; 786-O nude mice, 100 mg/kg
  Inhibition Rate (%): 62.49%
  Relative Tumor Proliferation Rate (T/C): 34.20%
  Relative Tumor Volume (RTV): 6.18 ± 0.61
  Tumor Weight: 0.80 ± 0.05 g
  Tumor Volume (mm3) (d 1): 103.26 ± 9.71 mm3
  Tumor Volume (mm3) (d30): 635.26 ± 78.22 mm3
[3]; [7]
  Relative Tumor Proliferation Rate (T/C): 34.20%
  tumor growth inhibition rate: 62.49%
[3]; [8]
  Relative Tumor Proliferation Rate (T/C): 73.13%
  tumor growth inhibition rate: 35.80%
[3]; 786-O
  tumor volume and relative tumor volume compared with the model group: significantly lower
[3]; [9]
  Relative Tumor Proliferation Rate (T/C): 51.33%
  tumor growth inhibition rate: 52.14%
[3]
  mouse weight compared with the model group: no significant changes
[3]; 25 mg/kg
  Body Weight (g) (d1): 22.72 ± 0.78 g
  Body Weight (g) (d30): 23.85 ± 0.89 g
[3]; 50 mg/kg
  Body Weight (g) (d1): 21.43 ± 1.08 g
  Body Weight (g) (d30): 22.33 ± 1.09 g
[3]; 100 mg/kg
  Body Weight (g) (d1): 22.28 ± 1.72 g
  Body Weight (g) (d30): 23.43 ± 1.69 g

## COC1C(OC(C)=O)CC(=O)OC(C)CC=CC=CC(OC2CCC(N(C)C)C(C)O2)C(C)CC(CC=O)C1OC1OC(C)C(OC2CC(C)(O)C(OC(=O)CC(C)C)C(C)O2)C(N(C)C)C1O (centres unmarked) [Isovaleryl spiramycin II, isovaleryl spiramycin II]
[1]; [4]
  Relative Tumor Proliferation Rate (T/C): 38.61%
  tumor growth inhibition rate: 62.04%
[1]; [5]
  Relative Tumor Proliferation Rate (T/C): 86.15%
  tumor growth inhibition rate: 20.91%
[1]; TPC-1
  tumor volume and relative tumor volume compared with the model group: significantly lower
[1]; [6]
  Relative Tumor Proliferation Rate (T/C): 59.08%
  tumor growth inhibition rate: 31.61%
[1]; dose 25 mg/kg
  Inhibition Rate (%): 20.91%
  Relative Tumor Proliferation Rate (T/C): 86.15%
  Relative Tumor Volume (RTV): 14.18 ± 1.70
  Tumor Weight: 1.91 ± 0.33 g
  Tumor Volume (mm3) (d 1): 119.12 ± 3.42 mm3
  Tumor Volume (mm3) (d30): 1689.63 ± 210.37 mm3
[1]; dose 50 mg/kg
  Inhibition Rate (%): 31.61%
  Relative Tumor Proliferation Rate (T/C): 59.08%
  Relative Tumor Volume (RTV): 9.72 ± 3.02
  Tumor Weight: 1.65 ± 0.32 g
  Tumor Volume (mm3) (d 1): 118.54 ± 6.49 mm3
  Tumor Volume (mm3) (d30): 1148.57 ± 344.78 mm3
[1]; dose 100 mg/kg
  Inhibition Rate (%): 62.04%
  Relative Tumor Proliferation Rate (T/C): 38.61%
  Relative Tumor Volume (RTV): 6.36 ± 2.38
  Tumor Weight: 0.92 ± 0.42 g
  Tumor Volume (mm3) (d 1): 117.30 ± 6.48 mm3
  Tumor Volume (mm3) (d30): 754.42 ± 320.69 mm3
[1]
  mouse weight compared with the model group: no significant changes
[1]; 25 mg/kg
  Body Weight (g) (d1): 20.54 ± 1.45 g
  Body Weight (g) (d30): 21.16 ± 1.37 g
[1]; 50 mg/kg
  Body Weight (g) (d1): 20.07 ± 1.13 g
  Body Weight (g) (d30): 12.45 ± 1.63 g
[1]; 100 mg/kg
  Body Weight (g) (d1): 21.78 ± 1.53 g
  Body Weight (g) (d30): 12.11 ± 1.20 g
[2]; dose 13 mg/kg
  Spleen Index (%): 0.75 ± 0.24%
  Thymus Index (%): 0.12 ± 0.08%
[2]; dose 26 mg/kg
  Spleen Index (%): 0.68 ± 0.21%
  Thymus Index (%): 0.14 ± 0.02%
[2]; dose 52 mg/kg
  Spleen Index (%): 0.66 ± 0.17%
  Thymus Index (%): 0.15 ± 0.09%
[3]; 786-O nude mice, 25 mg/kg
  Inhibition Rate (%): 19.69%
  Relative Tumor Proliferation Rate (T/C): 76.92%
  Relative Tumor Volume (RTV): 14.62 ± 1.93
  Tumor Weight: 1.72 ± 0.27 g
  Tumor Volume (mm3) (d 1): 96.82 ± 8.52 mm3
  Tumor Volume (mm3) (d30): 1415.80 ± 201.11 mm3
[3]; 786-O nude mice, 50 mg/kg
  Inhibition Rate (%): 41.09%
  Relative Tumor Proliferation Rate (T/C): 53.61%
  Relative Tumor Volume (RTV): 10.19 ± 2.62
  Tumor Weight: 1.26 ± 0.31 g
  Tumor Volume (mm3) (d 1): 96.82 ± 8.52 mm3
  Tumor Volume (mm3) (d30): 982.68 ± 265.02 mm3
[3]; 786-O nude mice, 100 mg/kg
  Inhibition Rate (%): 60.00%
  Relative Tumor Proliferation Rate (T/C): 35.74%
  Relative Tumor Volume (RTV): 6.79 ± 1.65
  Tumor Weight: 0.85 ± 0.16 g
  Tumor Volume (mm3) (d 1): 103.26 ± 9.71 mm3
  Tumor Volume (mm3) (d30): 701.57 ± 127.91 mm3
[3]; [7]
  Relative Tumor Proliferation Rate (T/C): 35.74%
  tumor growth inhibition rate: 60.00%
[3]; [8]
  Relative Tumor Proliferation Rate (T/C): 76.92%
  tumor growth inhibition rate: 19.69%
[3]; 786-O
  tumor volume and relative tumor volume compared with the model group: significantly lower
[3]; [9]
  Relative Tumor Proliferation Rate (T/C): 53.61%
  tumor growth inhibition rate: 41.09%
[3]
  mouse weight compared with the model group: no significant changes
[3]; 25 mg/kg
  Body Weight (g) (d1): 22.05 ± 0.71 g
  Body Weight (g) (d30): 23.33 ± 0.54 g
[3]; 50 mg/kg
  Body Weight (g) (d1): 22.42 ± 0.54 g
  Body Weight (g) (d30): 23.42 ± 0.50 g
[3]; 100 mg/kg
  Body Weight (g) (d1): 22.33 ± 0.41 g
  Body Weight (g) (d30): 23.45 ± 0.91 g
